Patent US10968210B2, “Diamino-alkylamino-linked arylsulfonamide compounds with selective activity in voltage-gated sodium channels” (Merck Sharp & Dohme Corp., priority 2016, dated 2021)

What was measured:
[1] = target: T1, human Nav 1.7 channels stably expressed in HEK 293 cells (Homo sapiens, UniProt Q15858); assay: IonWorks Quattro automated patch-clamp, inactivated state block of Nav 1.7; format: cell-based; settings: double-pulse protocol, HEK 293 cells held at -100 mV, read-out: potency for the Nav 1.7 sodium ion channel (IC50, IonWorks)
T1 construct: expressed in transfected cells; host or cells: HEK 293
T1 sequence (Q15858 whole entry): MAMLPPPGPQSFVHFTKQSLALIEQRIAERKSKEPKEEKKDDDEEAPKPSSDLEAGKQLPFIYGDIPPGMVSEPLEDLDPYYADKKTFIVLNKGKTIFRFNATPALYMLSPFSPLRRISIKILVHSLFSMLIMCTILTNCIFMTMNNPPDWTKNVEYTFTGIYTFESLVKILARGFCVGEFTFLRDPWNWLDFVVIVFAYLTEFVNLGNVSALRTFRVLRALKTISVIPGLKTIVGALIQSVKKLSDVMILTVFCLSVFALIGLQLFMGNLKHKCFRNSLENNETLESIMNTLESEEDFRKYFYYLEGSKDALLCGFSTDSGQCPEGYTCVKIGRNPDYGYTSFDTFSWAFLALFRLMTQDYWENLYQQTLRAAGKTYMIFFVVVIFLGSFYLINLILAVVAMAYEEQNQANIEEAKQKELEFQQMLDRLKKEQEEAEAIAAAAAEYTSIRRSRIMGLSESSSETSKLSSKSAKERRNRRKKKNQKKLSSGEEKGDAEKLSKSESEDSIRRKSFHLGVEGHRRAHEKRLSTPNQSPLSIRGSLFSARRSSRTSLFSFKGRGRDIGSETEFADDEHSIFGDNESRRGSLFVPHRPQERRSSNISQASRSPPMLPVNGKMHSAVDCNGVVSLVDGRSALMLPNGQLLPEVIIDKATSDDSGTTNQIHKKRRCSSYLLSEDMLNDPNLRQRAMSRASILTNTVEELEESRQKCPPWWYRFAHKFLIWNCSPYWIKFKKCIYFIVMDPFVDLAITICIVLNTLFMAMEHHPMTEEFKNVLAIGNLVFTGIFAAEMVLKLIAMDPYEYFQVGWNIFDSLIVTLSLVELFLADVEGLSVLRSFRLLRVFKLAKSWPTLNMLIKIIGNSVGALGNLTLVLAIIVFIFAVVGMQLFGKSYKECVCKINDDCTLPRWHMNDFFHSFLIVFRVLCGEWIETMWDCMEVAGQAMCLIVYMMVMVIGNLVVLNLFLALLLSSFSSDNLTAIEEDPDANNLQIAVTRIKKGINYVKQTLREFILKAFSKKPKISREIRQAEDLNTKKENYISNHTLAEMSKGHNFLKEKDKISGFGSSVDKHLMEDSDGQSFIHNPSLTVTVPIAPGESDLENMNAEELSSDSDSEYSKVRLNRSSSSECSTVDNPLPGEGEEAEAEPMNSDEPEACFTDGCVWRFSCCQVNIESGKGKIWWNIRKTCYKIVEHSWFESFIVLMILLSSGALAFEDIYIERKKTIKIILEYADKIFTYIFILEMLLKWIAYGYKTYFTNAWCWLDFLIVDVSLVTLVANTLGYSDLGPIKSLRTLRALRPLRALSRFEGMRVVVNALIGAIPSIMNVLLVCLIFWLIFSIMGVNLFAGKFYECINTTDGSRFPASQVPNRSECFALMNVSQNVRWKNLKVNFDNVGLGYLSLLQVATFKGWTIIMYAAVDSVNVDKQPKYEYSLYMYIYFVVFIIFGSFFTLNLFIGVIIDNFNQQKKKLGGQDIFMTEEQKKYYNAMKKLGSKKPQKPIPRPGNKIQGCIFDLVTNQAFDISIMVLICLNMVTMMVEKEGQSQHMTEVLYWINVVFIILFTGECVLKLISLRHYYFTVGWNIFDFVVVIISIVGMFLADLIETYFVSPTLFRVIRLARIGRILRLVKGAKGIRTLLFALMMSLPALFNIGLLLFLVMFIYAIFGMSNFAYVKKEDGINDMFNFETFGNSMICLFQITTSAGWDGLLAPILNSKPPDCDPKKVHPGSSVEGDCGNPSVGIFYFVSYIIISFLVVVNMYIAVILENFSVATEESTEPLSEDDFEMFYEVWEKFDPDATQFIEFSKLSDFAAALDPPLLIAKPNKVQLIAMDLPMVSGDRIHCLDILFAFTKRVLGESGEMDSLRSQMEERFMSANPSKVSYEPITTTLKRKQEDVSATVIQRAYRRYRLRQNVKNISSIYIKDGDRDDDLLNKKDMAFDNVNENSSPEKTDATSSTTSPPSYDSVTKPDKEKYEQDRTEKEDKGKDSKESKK
Procedure: (§1) IonWorks® Experimental Procedure
(§2) Compounds were tested on human Nav 1.7 and Nav 1.5 channels stably expressed in HEK 293 cells. Sodium current measurements on IonWorks Quattro: An automated patch-clamp assay on the IonWorks Quattro platform (Molecular Devices) was used to measure state-dependent inhibition of human Nav 1.7 and Nav 1.5 channels. Cells were sealed on a planar substrate using the Population Patch Plate (PPC) technology. Electrical access was obtained using both nystatin and amphotericin. A double-pulse protocol was used for the determination of IC50 values for inactivated state block. Nav 1.7 and Nav 1.5 expressing cells were voltage clamped at −100 mV and −110 mV, respectively. A depolarizing prepulse to −10 mV (Nav 1.7) or −30 mV (Nav 1.5) for 1000 ms followed by a 10 ms repolarization to ˜100 mV (Nav1.7) or −110 mV (Nav 1.5) was given to generate fractional channel inactivation of ˜50%, followed by a 10 ms test pulse to −10 mV (Nav 1.7) or −30 mV (Nav 1.5) to measure peak current in control conditions and after compound addition. The following recording solutions were used (mM). External: 150 NaCl, 2 CaCl2, 5 KCl, 1 Mg Cl2, 10 HEPES, 12 Dextrose; internal: 120 CsF, 30 CsCl, 10 EGTA, 5 HEPES, 5 NaF, 2 MgCl2.
(§3) For all electrophysiology experiments, offline analysis was used to determine percent inhibition as a function of drug concentration. IC50 values were determined by fitting to the Hill equation.
(§4) The various compounds in Examples 1 through 4 and Tables 1 through 3 exemplified above were assayed for activity and selectivity using the foregoing IonWorks® technique. The results are reported in the following paragraph in a format expressing the identification of the compound with reference Example and compound (e.g. Ex 1-9 is Example 1, compound 9) followed by the observed potency in nM and the ratio of Nav1.7 potency: Nav1.5 potency as described here. Thus, Ex1-9: 1.7=65/ratio=641 identifies compound Example 1, compound 9 as having 65 nM potency for the Nav 1.7 sodium ion channel (as measured by IonWorks®) and a ratio of 641 Nav 1.7: Nav 1.5 potency, determined by IonWorks® measurement.

[2] = target: T2, human Nav 1.5 channels stably expressed in HEK 293 cells (Homo sapiens, UniProt Q14524); assay: IonWorks Quattro automated patch-clamp, inactivated state block of Nav 1.5 (reported as ratio to Nav 1.7 potency); format: cell-based; settings: selectivity for Nav 1.7 over Nav 1.5, both by IonWorks
T2 construct: expressed in transfected cells; host or cells: HEK 293
T2 sequence (Q14524 whole entry): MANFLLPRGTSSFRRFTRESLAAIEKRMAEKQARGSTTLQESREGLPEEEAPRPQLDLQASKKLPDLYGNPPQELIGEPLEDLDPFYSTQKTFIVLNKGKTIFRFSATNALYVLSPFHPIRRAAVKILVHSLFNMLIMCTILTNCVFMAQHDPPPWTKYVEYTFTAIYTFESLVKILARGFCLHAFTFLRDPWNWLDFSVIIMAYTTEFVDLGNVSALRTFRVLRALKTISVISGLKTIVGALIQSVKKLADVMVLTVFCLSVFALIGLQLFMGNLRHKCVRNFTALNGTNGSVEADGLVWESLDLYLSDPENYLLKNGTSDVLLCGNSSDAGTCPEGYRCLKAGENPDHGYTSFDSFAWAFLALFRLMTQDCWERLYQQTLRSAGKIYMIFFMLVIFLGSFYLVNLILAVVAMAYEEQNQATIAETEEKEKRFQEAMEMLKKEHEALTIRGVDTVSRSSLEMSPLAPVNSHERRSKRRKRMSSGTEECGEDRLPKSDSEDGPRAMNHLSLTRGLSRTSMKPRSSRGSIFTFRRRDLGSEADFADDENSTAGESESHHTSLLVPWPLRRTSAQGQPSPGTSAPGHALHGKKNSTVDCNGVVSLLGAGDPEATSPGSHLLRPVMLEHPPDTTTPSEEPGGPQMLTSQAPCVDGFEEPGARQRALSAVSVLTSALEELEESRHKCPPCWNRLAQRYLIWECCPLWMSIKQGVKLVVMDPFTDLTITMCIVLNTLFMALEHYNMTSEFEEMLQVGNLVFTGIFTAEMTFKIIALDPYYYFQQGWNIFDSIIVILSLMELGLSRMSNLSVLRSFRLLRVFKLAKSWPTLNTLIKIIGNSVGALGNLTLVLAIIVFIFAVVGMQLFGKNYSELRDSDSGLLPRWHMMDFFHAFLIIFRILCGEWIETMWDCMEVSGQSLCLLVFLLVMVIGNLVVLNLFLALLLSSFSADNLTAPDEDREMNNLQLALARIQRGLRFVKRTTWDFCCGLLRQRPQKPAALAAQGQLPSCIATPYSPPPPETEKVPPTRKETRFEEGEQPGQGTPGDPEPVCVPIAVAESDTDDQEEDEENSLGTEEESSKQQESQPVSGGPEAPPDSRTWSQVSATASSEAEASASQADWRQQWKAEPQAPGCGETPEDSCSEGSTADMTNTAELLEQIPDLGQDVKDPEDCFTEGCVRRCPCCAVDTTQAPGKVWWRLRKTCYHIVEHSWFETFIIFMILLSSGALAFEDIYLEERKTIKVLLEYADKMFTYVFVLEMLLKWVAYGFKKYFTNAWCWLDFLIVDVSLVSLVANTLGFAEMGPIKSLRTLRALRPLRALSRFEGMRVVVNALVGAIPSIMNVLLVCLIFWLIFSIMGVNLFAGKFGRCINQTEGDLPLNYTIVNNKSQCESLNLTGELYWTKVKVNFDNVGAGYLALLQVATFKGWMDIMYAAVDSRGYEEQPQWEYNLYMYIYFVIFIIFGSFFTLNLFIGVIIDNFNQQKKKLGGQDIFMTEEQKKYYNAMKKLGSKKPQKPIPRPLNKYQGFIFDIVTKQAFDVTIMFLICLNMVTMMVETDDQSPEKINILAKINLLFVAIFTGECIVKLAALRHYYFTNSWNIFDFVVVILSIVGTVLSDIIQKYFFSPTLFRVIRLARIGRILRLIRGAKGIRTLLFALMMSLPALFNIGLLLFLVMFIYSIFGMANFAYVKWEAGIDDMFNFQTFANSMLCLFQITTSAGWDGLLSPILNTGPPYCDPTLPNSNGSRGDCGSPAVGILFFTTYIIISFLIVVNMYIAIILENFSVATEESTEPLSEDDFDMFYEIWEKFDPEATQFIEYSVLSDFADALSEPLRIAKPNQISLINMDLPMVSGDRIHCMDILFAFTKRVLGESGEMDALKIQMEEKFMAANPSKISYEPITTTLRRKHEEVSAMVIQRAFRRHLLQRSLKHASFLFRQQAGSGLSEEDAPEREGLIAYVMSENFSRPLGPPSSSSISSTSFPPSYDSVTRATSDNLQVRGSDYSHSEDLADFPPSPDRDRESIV
Procedure: as §1, §2, §3, §4

Row | IC50 [1] | SMILES | ratio of Nav 1.7 : Nav 1.5 potency (IonWorks) [2]
1 | 0.24 µM | COc1ccc(CC2(CNCCCCNc3cc(F)c(S(=O)(=O)Nc4nccs4)cc3Cl)CCCN2)cc1 (single isomer, unassigned) [Ex 1-16 Enantiomer A, (S or R)-5-chloro-2-fluoro-4-{[4-({[2-(4-methoxybenzyl)pyrrolidin-2-yl]methyl}amino)butyl]amino}-N-1,3-thiazol-2-ylbenzenesulfonamide] | 50
2 | 0.13 µM | COc1ccc(CC2(CNCCCCNc3cc(F)c(S(=O)(=O)Nc4nccs4)cc3Cl)CCCN2)cc1 (single isomer, unassigned) [Ex 1-16 Enantiomer B, (R or S)-5-chloro-2-fluoro-4-{[4-({[2-(4-methoxybenzyl)pyrrolidin-2-yl]methyl}amino)butyl]amino}-N-1,3-thiazol-2-ylbenzenesulfonamide] | 185
3 | 0.0079 µM | O=S(=O)(Nc1nccs1)c1cc(Cl)c(NCCCCNCC2Cc3ccccc3CN2)cc1F (single isomer, unassigned) [Ex 1-18, (R or S)-5-chloro-2-fluoro-4-({4-[(1,2,3,4-tetrahydroisoquinolin-3-ylmethyl)amino]butyl}amino)-N-1,3-thiazol-2-ylbenzenesulfonamide] | > 4177
4 | 0.035 µM | O=S(=O)(Nc1nccs1)c1cc(Cl)c(NCC2CCCC(NCC3CCCN3)C2)cc1F (single isomer, unassigned) [Ex 6-7 Enantiomer B, 5-chloro-2-fluoro-4-((((1S,3R or 1R,3S)-3-(((S)-pyrrolidin-2-ylmethyl)amino)cyclohexyl)methyl)amino)-N-(thiazol-2-yl)benzenesulfonamide] | > 940
5 | 0.042 µM | NCC1CCN1CCCCNc1cc(F)c(S(=O)(=O)Nc2nccs2)cc1Cl (single isomer, unassigned) [Ex 16-53, (S or R)-4-({4-[2-(aminomethyl)-azetidin-1-yl]butyl}amino)-5-chloro-2-fluoro-N-1,3-thiazol-2-ylbenzene-sulfonamide] | > 786
6 | 0.007 µM | O=S(=O)(Nc1nccs1)c1cc(Cl)c(NCCCCNCCNCc2ccccc2)cc1F [Ex 1-3, 4-[(4-{[2-(benzylamino)ethyl]amino}butyl)amino]-5-chloro-2-fluoro-N-1,3-thiazol-2-ylbenzenesulfonamide] | > 4700
7 | 0.038 µM | O=S(=O)(Nc1nccs1)c1cc(Cl)c(NCCCCN2CCC3(CCCN3)CC2)cc1F [Ex 1-14, 5-chloro-4-{[4-(1,8-diazaspiro[4.5]dec-8-yl)butyl]amino}-2-fluoro-N-1,3-thiazol-2-ylbenzenesulfonamide] | > 870
8 | 0.06 µM | O=S(=O)(Nc1nccs1)c1cc(Cl)c(NCCCCN[C@H]2[C@@H]3CC[C@H]2NC3)cc1F [Ex 1-17, 4-({4-[(1R,4R,7S)-2-azabicyclo[2.2.1]hept-7-ylamino]butyl}amino)-5-chloro-2-fluoro-N-1,3-thiazol-2-ylbenzenesulfonamide] | > 550
9 | 0.056 µM | N[C@H]1[C@@H]2CC[C@H]1N(CCCCNc1cc(F)c(S(=O)(=O)Nc3nccs3)cc1Cl)C2 [Ex 1-20, 4-({4-[(1R,4R,7S)-7-amino-2-azabicyclo[2.2.1]hept-2-yl]butyl}amino)-5-chloro-2-fluoro-N-1,3-thiazol-2-ylbenzenesulfonamide] | > 590
10 | 0.026 µM | O=S(=O)(Nc1nccs1)c1cc(Cl)c(NCCCCN2C[C@H]3CNC[C@H]3C2)cc1F [Ex 1-22, 5-chloro-2-fluoro-4-({4-[(3aR,6aS)-hexahydropyrrolo[3,4-c]pyrrol-2(1H)-yl]butyl}amino)-N-1,3-thiazol-2-ylbenzenesulfonamide] | > 1270
11 | 0.066 µM | O=S(=O)(Nc1nccs1)c1cc(Cl)c(NCCCCNC[C@H]2CC(F)(F)CN2)cc1F [Ex 8-15, 5-chloro-4-{[4-({[(2R)-4,4-difluoropyrrolidin-2-yl]-methyl}amino)butyl]amino}-2-fluoro-N-1,3-thiazol-2-yl-benzenesulfonamide] | 
12 | 0.029 µM | O=S(=O)(Nc1cccc(F)n1)c1cc(Cl)c(NCCCCCNC[C@@H]2CCCN2)cc1F [Ex 9-2, (S)-5-chloro-2-fluoro-N-(6-fluoropyridin-2-yl)-4-((5-((pyrrolidin-2-ylmethyl)amino)pentyl)amino)benzenesulfonamide] | 
13 | 0.019 µM | O=S(=O)(Nc1nccs1)c1cc(Cl)c(NCCCCCNCC2CCCCN2)cc1F (centres unmarked) [Ex 9-03, 5-chloro-2-fluoro-4-({5-[(piperidin-2-ylmethyl)-amino]pentyl}amino)-N-1,3-thiazol-2-yl-benzenesulfonamide] | 
14 | 0.049 µM | O=S(=O)(Nc1nccs1)c1cc(Cl)c(NCC(F)(F)CCNC[C@@H]2CCCN2)cc1F [Ex 11-11, 5-chloro-4-[(2,2-difluoro-4-{[(2S)-pyrrolidin-2-ylmethyl]amino}butyl)amino]-2-fluoro-N-1,3-thiazol-2-ylbenzenesulfonamide] | 
15 | 0.049 µM | O=S(=O)(Nc1nccs1)c1cc(Cl)c(NCC(F)(F)CCNC[C@H]2CCCN2)cc1F [Ex 11-12, 5-chloro-4-[(2,2-difluoro-4-{[(2R)-pyrrolidin-2-ylmethyl]amino}butyl)amino]-2-fluoro-N-1,3-thiazol-2-ylbenzenesulfonamide] | 
16 | 0.019 µM | NC[C@H]1CCN1CCCCNc1cc(F)c(S(=O)(=O)Nc2ncc(F)s2)cc1Cl [Ex 16-10, 4-({4-[(2R)-2-(aminomethyl)azetidin-1-yl]-butyl}amino)-5-chloro-2-fluoro-N-(5-fluoro-1,3-thiazol-2-yl)-benzene-sulfonamide] | 
17 | 0.012 µM | O=S(=O)(Nc1ncns1)c1cc(Cl)c(NCCCCN2C[C@H]3CCCN[C@H]3C2)cc1F [Ex 16-31, 5-chloro-2-fluoro-4-({4-[(4aR,7aR)-octahydro-6H-pyrrolo[3,4-b]pyridin-6-yl]-butyl}amino)-N-1,2,4-thiadiazol-5-ylbenzene-sulfonamide] | 
18 | 0.01 µM | NCC1CN(CCCCNc2cc(F)c(S(=O)(=O)Nc3ncns3)cc2Br)C1 [Ex 16-37, 4-((4-(3-(aminomethyl)azetidin-1-yl)butyl)amino)-5-bromo-2-fluoro-N-(1,2,4-thiadiazol-5-yl)benzenesulfonamide] | 
19 | 0.03 µM | NC1CN(CCCCNc2cc(F)c(S(=O)(=O)Nc3ncns3)cc2Cl)C1 [Ex 16-38, 4-{[4-(3-aminoazetidin-1-yl)-butyl]amino}-5-chloro-2-fluoro-N-1,2,4-thiadiazol-5-yl-benzenesulfonamide] | 
20 | 0.029 µM | N#Cc1cc(S(=O)(=O)Nc2ncc(F)s2)c(F)cc1NCCCCN[C@@H]1CCNC1 [Ex 16-40, 5-cyano-2-fluoro-N-(5-fluoro-1,3-thiazol-2-yl)-4-({4-[(3R)-pyrrolidin-3-yl-amino]butyl}amino)benzene-sulfonamide] | 
21 | 0.044 µM | O=S(=O)(Nc1nccs1)c1cc(Cl)c(NCCCCNC2C[C@@H]3CN[C@H]2C3)cc1F (stereo partly drawn) [Ex 16-42, 4-({4-[(1S,4R)-2-azabicyclo[2.2.1]hept-6-yl-amino]butyl}amino)-5-chloro-2-fluoro-N-1,3-thiazol-2-ylbenzene-sulfonamide] | 
22 | 0.011 µM | Cc1cc(S(=O)(=O)Nc2ncc(F)s2)c(F)cc1NCCCCN[C@@H]1CCNC1 [Ex 16-43, 2-fluoro-N-(5-fluoro-1,3-thiazol-2-yl)-5-methyl-4-({4-[(3R)-pyrrolidin-3-ylamino]-butyl}amino)benzene-sulfonamide] | 
23 | 0.012 µM | O=S(=O)(Nc1ncc(F)s1)c1cc(Br)c(NCCCCN2C[C@H]3CCCN[C@H]3C2)cc1F [Ex 16-44, 5-bromo-2-fluoro-N-(5-fluoro-1,3-thiazol-2-yl)-4-({4-[(4aR,7aR)-octahydro-6H-pyrrolo[3,4-b]pyridin-6-yl]butyl}amino)benzene-sulfonamide] | 
24 | 0.016 µM | N#Cc1cc(S(=O)(=O)Nc2ncns2)c(F)cc1NCCCCN[C@@H]1CCNC1 [Ex 16-45, 5-cyano-2-fluoro-4-({4-[(3R)-pyrrolidin-3-yl-amino]butyl}amino)-N-1,2,4-thiadiazol-5-ylbenzene-sulfonamide] | 
25 | 0.013 µM | CN[C@@H]1CCN(CCCCNc2cc(F)c(S(=O)(=O)Nc3ncc(F)s3)cc2Cl)C1 [Ex 16-54, 5-chloro-2-fluoro-N-(5-fluoro-1,3-thiazol-2-yl)-4-({4-[(3R)-3-(methylamino)-pyrrolidin-1-yl]butyl}-amino)-benzenesulfonamide] | 
